Measured values reported in ChEMBL document CHEMBL5543108, “Structure-based design and synthesis of BML284 derivatives: A novel class of colchicine-site noncovalent tubulin degradation agents” (Eur J Med Chem, 2024).
The source made the active and inactive calls. The calls are words filed in the database; no cut-off is given here.

Columns and labels:
[1] = Clearance in male Sprague-Dawley rat at 10 mg/kg, iv; format: ADME, organism-based; conditions: in vivo
A2780/Taxol [2] = experiment: Induction of cell cycle arrest in human A2780T cells assessed as accumulation of cells at G0/G1 phase at 3 nM measured after 24 hrs by propidium iodide staining based analysis (reference value: 46.141%); format: functional
A2780S [3] = experiment: Induction of cell cycle arrest in human A2780S cells assessed as accumulation of cells at G2/M phase at 30 nM measured after 24 hrs by propidium iodide staining based analysis (reference value: 18.43%); format: functional
[4] = Toxicity in mouse xenografted with human A2780S cells assessed as side effects at 10 to 30 mg/kg, iv measured upto 12 days; format: organism-based; conditions: in vivo, 288 h, dose 10-30 mg/kg, time < 12 day
[5] = Half life in male Sprague-Dawley rat at 10 mg/kg, iv; format: ADME, organism-based; conditions: in vivo
A2780S [6] = experiment: Induction of cell cycle arrest in human A2780S cells assessed as accumulation of cells at G2/M phase at 100 nM measured after 24 hrs by propidium iodide staining based analysis (reference value: 18.43%); format: functional
[7] = molecular target: Tubulin beta (Homo sapiens) (UniProt P68371+Q9H4B7+Q13509+P04350+Q3ZCM7+P07437+Q13885+Q9BVA1+Q9BUF5+A6NNZ2); experiment: Binding affinity to beta-tubulin colchicine binding site in human HeLa cells assessed as inhibition of EBI-beta-tubulin adduct band formation by EBI competition based Western blot analysis; format: cell-based; conditions: dose 0.2-25 µM
[8] = Cmax in male Sprague-Dawley rat at 10 mg/kg, iv; format: ADME, organism-based; conditions: in vivo
A2780S [9] = experiment: Induction of cell cycle arrest in human A2780S cells assessed as accumulation of cells at G2/M phase at 3 nM measured after 24 hrs by propidium iodide staining based analysis (reference value: 18.43%); format: functional
A2780/Taxol [10] = experiment: Induction of cell cycle arrest in human A2780T cells assessed as accumulation of cells at S phase at 300 nM measured after 24 hrs by propidium iodide staining based analysis (reference value: 29.73%); format: functional
A2780/Taxol [11] = experiment: Induction of cell cycle arrest in human A2780T cells assessed as accumulation of cells at G2/M phase at 3 nM measured after 24 hrs by propidium iodide staining based analysis (reference value: 24.13%); format: functional
Tubulin (Homo sapiens) [12] = molecular target: T1, Tubulin (Homo sapiens) (UniProt P68371+Q9H4B7+P0DPH7+P68366+Q13509+Q71U36+P04350+Q3ZCM7+P07437+P68363+Q9BQE3+Q6PEY2+Q13885+Q9BVA1+Q9BUF5); experiment: Induction of tubulin degradation in human HeLa cells measured after 24 hrs by immunoblot analysis; format: cell-based; conditions: dose <= 50.0 µM
A2780S [13] = experiment: Induction of apoptosis in human A2780S cells assessed as total number of late apoptotic cells at 300 nM measured after 48 hrs by Annexin-V-FITC and PI staining based flow cytometry analysis (reference value: 3.42%); format: functional
[14] = AUC (0 to t) in male Sprague-Dawley rat at 10 mg/kg, iv; format: ADME, organism-based; conditions: in vivo
A2780S [15] = experiment: Induction of cell cycle arrest in human A2780S cells assessed as accumulation of cells at S phase at 3 nM measured after 24 hrs by propidium iodide staining based analysis (reference value: 29.85%); format: functional
A2780/Taxol [16] = experiment: Induction of cell cycle arrest in human A2780T cells assessed as accumulation of cells at G0/G1 phase at 300 nM measured after 24 hrs by propidium iodide staining based analysis (reference value: 46.141%); format: functional
A2780S [17] = experiment: Induction of cell cycle arrest in human A2780S cells assessed as accumulation of cells at S phase at 10 nM measured after 24 hrs by propidium iodide staining based analysis (reference value: 29.85%); format: functional
A2780S [18] = experiment: Antitumor activity against human A2780S cells xenografted in mouse model assessed as tumor growth inhibition at 20 mg/kg, iv administered every two days for 12 days relative to control; format: functional; conditions: 288 h, time 12 day, read-out: TGI
A2780/Taxol [19] = experiment: Induction of apoptosis in human A2780T cells assessed as total number of late apoptotic cells at 100 nM measured after 48 hrs by Annexin-V-FITC and PI staining based flow cytometry analysis (reference value: 3.42%); format: functional
Tubulin (Homo sapiens) [20] = molecular target: T1, Tubulin (Homo sapiens); experiment: Inhibition of tubulin polymerization (unknown origin) preincubated for 5 mins with compound followed by GTP addition and measured upto 40 mins; format: protein-complex assay; conditions: dose 5-10 µM, time <= 45.0 min
A2780S [21] = experiment: Induction of cell cycle arrest in human A2780S cells assessed as accumulation of cells at G2/M phase at 10 nM measured after 24 hrs by propidium iodide staining based analysis (reference value: 18.43%); format: functional
HUVEC [22] = experiment: Antivascular activity against human HUVEC cells assessed as inhibition of capillary tube formation at 40 nM incubated for 6 hrs by microscopy based analysis relative to control; format: functional; set-up: scale not given: the % may be the effect or the level left
[23] = Clearance in male Sprague-Dawley rat at 10 mg/kg, po; format: ADME, organism-based; conditions: in vivo
A2780S [24] = experiment: Induction of apoptosis in human A2780S cells assessed as total number of late apoptotic cells at 30 nM measured after 48 hrs by Annexin-V-FITC and PI staining based flow cytometry analysis (reference value: 3.42%); format: functional
A2780/Taxol [25] = experiment: Induction of cell cycle arrest in human A2780T cells assessed as accumulation of cells at S phase at 10 nM measured after 24 hrs by propidium iodide staining based analysis (reference value: 29.73%); format: functional
Tubulin (Homo sapiens) [26] = molecular target: T1, Tubulin (Homo sapiens); experiment: Induction of tubulin degradation in human HeLa cells at 1 uM measured after 24 hrs by immunoblot analysis; format: cell-based
A2780S [27] = experiment: Induction of cell cycle arrest in human A2780S cells assessed as accumulation of cells at G0/G1 phase at 30 nM measured after 24 hrs by propidium iodide staining based analysis (reference value: 51.71%); format: functional
[28] = Cmax in male Sprague-Dawley rat at 10 mg/kg, po; format: ADME, organism-based; conditions: in vivo
A2780S [29] = experiment: Induction of cell cycle arrest in human A2780S cells assessed as accumulation of cells at G0/G1 phase at 300 nM measured after 24 hrs by propidium iodide staining based analysis (reference value: 51.71%); format: functional
A2780S [30] = experiment: Induction of cell cycle arrest in human A2780S cells assessed as accumulation of cells at G0/G1 phase at 10 nM measured after 24 hrs by propidium iodide staining based analysis (reference value: 51.71%); format: functional
HUVEC [31] = experiment: Antivascular activity against human HUVEC cells assessed as inhibition of capillary tube formation incubated for 24 hrs by microscopy based analysis; format: functional, cell-based
A2780/Taxol [32] = experiment: Induction of cell cycle arrest in human A2780T cells assessed as accumulation of cells at G0/G1 phase at 30 nM measured after 24 hrs by propidium iodide staining based analysis (reference value: 46.141%); format: functional
[33] = Tmax in male Sprague-Dawley rat at 10 mg/kg, iv; format: ADME, organism-based; conditions: in vivo
[34] = Selectivity ratio of IC50 for paclitaxel resistant human A549/Taxol cells to IC50 for human A549
A2780S [35] = experiment: Induction of cell cycle arrest in human A2780S cells assessed as accumulation of cells at S phase at 300 nM measured after 24 hrs by propidium iodide staining based analysis (reference value: 29.85%); format: functional
[36] = Bioavailability in male Sprague-Dawley rat at 10 mg/kg, iv; format: ADME, organism-based; conditions: in vivo

- clearance [1]: 42.5 mL/min/kg
- half-life [5]: 1.93 h
- Activity [7]: Dose-Dependent Effect
- Cmax [8]: 2890 ng/mL
- Activity (Tubulin (Homo sapiens) [12]): Dose-Dependent Effect
- AUC(0-t) [14]: 4270 ng·h/mL
- inhibition (Tubulin (Homo sapiens) [20]): Dose-Dependent Effect
- CL/F [23]: 314 mL/min/kg
- Activity (Tubulin (Homo sapiens) [26]): Active
- Cmax [28]: 77.9 ng/mL
- Tmax [33]: 4.8 min
- bioavailability [36]: 10.5%
Compound: COc1cccc(-c2cc(NCc3ccc4[nH]ccc4c3)nc(N)n2)c1
- Activity (A2780/Taxol [2]): 50.87%
- Activity (A2780S [3]): 23.82%
- Activity [4]: Toxic
- Activity (A2780S [6]): 42.46%
- Activity (A2780S [9]): 23.17%
- Activity (A2780/Taxol [10]): 11.38%
- Activity (A2780/Taxol [11]): 19.35%
- Activity (A2780S [13]): 15.57%
- Activity (A2780S [15]): 29.35%
- Activity (A2780/Taxol [16]): 4.64%
- Activity (A2780S [17]): 29.27%
- inhibition in vivo at 20 mg/kg (A2780S [18]): 63.6%
- Activity (A2780/Taxol [19]): 14.43%
- Activity (A2780S [21]): 22.16%
- Activity (HUVEC [22]): 100%
- Activity (A2780S [24]): 5.29%
- Activity (A2780/Taxol [25]): 32.91%
- Activity (A2780S [27]): 48.16%
- Activity (A2780S [29]): 1.54%
- Activity (A2780S [30]): 48.57%
- IC50 (HUVEC [31]): 623 nM
- Activity (A2780/Taxol [32]): 44.27%
- Ratio IC50 [34]: 1.1
- Activity (A2780S [35]): 16.35%
